Seven compounds from US20250154156A1, “QUINAZOLINE DERIVATIVE AS KRAS G12C MUTATION INHIBITOR” (Shenzhen Forward Pharmaceuticals Co., Limited, priority 2022, published 2025) can be followed below.

For orientation: half-life means how long it takes for the measured level to halve. Low readings indicate fast loss, high ones slow loss. As a reminder, the CLint scaled is the capacity of the preparation to metabolise the compound, expressed as a volume cleared per time. Low readings indicate slow turnover, high ones rapid turnover. A word on the IC50: it is the concentration at which inhibition is half-maximal.

Data set [1] in a line: In vitro human liver microsome stability experiment. The note with it: human liver microsomes; for half-life / microsomal CLint: 1 mg/mL microsome protein, NADPH, 37° C.; for microsomal CLint: read-out: CLint(mic); for CLint scaled: scaled to liver. In kind it is in vitro ADME. The method, then: Eight 96-well incubation plates were prepared, named [NT], Blank60, and NCF60, respectively. […] No compound to be tested or control compound was added to the Blank60 plate and samples were taken after 60 minutes of incubation. The NCF60 plate, in which a potassium phosphate buffer was used instead of an NADPH regeneration system solution (Sigma, N0505), was incubated for 60 minutes. […] Only the working solution of microsomes was added to the Blank60 plate, and the incubation plates Blank60, T5, T15, T30, T45, and T60 except TO and NCF60 were then placed in a water bath at 37° C. for pre-incubation for about 10 minutes. To the TO plate sample, 600 μL of a stop solution (acetonitrile:methanol (95:5, v/v) solution containing 100 ng/mL tolbutamide (Sigma, T0891)) was added first, and then an NADPH regeneration system working solution was added. 98 μL of a potassium phosphate buffer was added to each well of the NCF60 plate and incubated for 60 minutes. After the pre-incubation in the incubation plates Blank60, T5, T15, T30, T45, and T60 was complete, 98 μL of the NADPH regeneration system working solution was added to each sample well to initiate the reaction. After an appropriate incubation time (such as 5, 15, 30, 45, and 60 minutes), 600 μL of the stop solution was added to each sample well and control sample well in the Blank60, […] the reaction. All the sample plates were shaken evenly and centrifuged at 3220×g for 20 minutes. 200 μL of each test sample supernatant was taken and diluted into 200 μL of an aqueous solution containing 0.3% formic acid for LC-MS/MS analysis, and 100 μL of the control sample supernatant was taken and diluted into 300 μL of pure water for LC-MS/MS analysis. Calculations were carried out according to the following formulas: […]
(In general: Liver microsomes are vesicles of endoplasmic reticulum, rich in cytochrome P450 enzymes.)

In data set [2] the target is Ba/F3 (KRAS-G12C-Y96C) cells (Homo sapiens, UniProt P01116, G12C/Y96C, cells depend on it). The data set is described as follows: Proliferation experiment of Ba/F3 (KRAS-G12C-Y96C) cells. The note with it: 72 hours, Cell Titer-Glo, read-out: Test Example 3 IC50. In kind it is cell-based. The procedure:
Engineered cell strain Ba/F3 (KRAS-G12C-Y96C) was a cell strain constructed by the inventors according to the methods described in Warmuth M. et al, Curr Opin Oncol. […] The cells were grown at 37° C. in a humidified incubator with […].
(§1) According to the solution described in Cell Titer-Glo Luminescent cell Viability Assay (Promega catalog number #G7570) of Promega Corporation, the number of living cells in the culture was detected. 90 μL of cells (3,000 cells/well) were cultured in a growth medium in a Corning black transparent bottom 96-well plate and were cultured overnight in a 50% CO2 humidified incubator at 37° C. The compound diluted serially in 100% DMSO was added to the cells by a pipette, and the cells were cultured for another 72 hours. 100 μL of the well-mixed Cell Titer-Glo reagent was added to the cells in the 96-well culture plate to lyse the cells and gently mixed. Subsequently, […] was detected on an Envision microplate detector, and the data of each compound was obtained. Finally, the data was input into a suitable software package (such as Prism) for curve fitting analysis.
(In general: Cellular ATP, detected with luciferase, serves as a proxy for viable cell number.)

Data set [3] concerns NCI-H23 cells (KRAS G12C mutant cell line). Put plainly: Proliferation experiment of NCI-H23 cells (Cell Titer-Glo). The format is cell-based. The note with it: Homo sapiens, 72 hours, read-out: Test Example 2 IC50. The procedure:
Human lung cancer cell line NCI-H23 (ATCC, CRL-5800) was a KRAS G12C mutant cell line.
as §1, with “(8,000” for “(3,000”, “5%” for “50%”

For data set [4], the target named is Ba/F3 (KRAS-G12C-R68S) cells (Homo sapiens, UniProt P01116, G12C/R68S, cells depend on it). The data set is described as follows: Proliferation experiment of Ba/F3 (KRAS-G12C-R68S) cells. In kind it is cell-based. The note with it: 72 hours, Cell Titer-Glo, read-out: Test Example 5 IC50. The method, then:
Engineered cell strain Ba/F3 (KRAS-G12C-R68S) was a cell strain constructed by the inventors according to the methods described in Warmuth M. et al, Curr Opin Oncol. […] The cells were grown at 37° C. in a humidified incubator with 5% CO2.
as §1, with “5%” for “50%”

Data set [5] concerns NCI-H358 cells (KRAS G12C mutant cell line). Put plainly: Proliferation experiment of NCI-H358 cells (Cell Titer-Glo). The format is cell-based. The conditions noted are these: Homo sapiens, 72 hours, read-out: Test Example 1 IC50. The procedure: as §1, with “(8,000” for “(3,000”, “5%” for “50%”
Data set [6] deals with Ba/F3 (KRAS-G12C-Q99L) cells (Homo sapiens, UniProt P01116, G12C/Q99L, cells depend on it). The data set is described as follows: Proliferation experiment of Ba/F3 (KRAS-G12C-Q99L) cells. In kind it is cell-based. The note with it: 72 hours, Cell Titer-Glo, read-out: Test Example 6 IC50. The method, then: Engineered cell strain Ba/F3 (KRAS-G12C-Q99L) was a cell strain constructed by the inventors according to the methods described in Warmuth M. et al, Curr Opin Oncol. […] The cells were grown at 37° C. in a humidified incubator with 5% CO2.
as §1, with “5%” for “50%”

The target in data set [7] is Ba/F3 (KRAS-G12C-H95Q) cells (Homo sapiens, UniProt P01116, G12C/H95Q, cells depend on it). Put plainly: Proliferation experiment of Ba/F3 (KRAS-G12C-H95Q) cells. In kind it is cell-based. The note with it: 72 hours, Cell Titer-Glo, read-out: Test Example 4 IC50. The method, then: Engineered cell strain Ba/F3 (KRAS-G12C-H95Q) was a cell strain constructed by the inventors according to the methods described in Warmuth M. et al, Curr Opin Oncol. […] The cells were grown at 37° C. in a humidified incubator with […].
as §1, with “5%” for “50%”

Each structure is given as a SMILES string.

Ba/F3 (KRAS-G12C-H95Q) cells, sequence (P01116 whole entry G12C/H95Q): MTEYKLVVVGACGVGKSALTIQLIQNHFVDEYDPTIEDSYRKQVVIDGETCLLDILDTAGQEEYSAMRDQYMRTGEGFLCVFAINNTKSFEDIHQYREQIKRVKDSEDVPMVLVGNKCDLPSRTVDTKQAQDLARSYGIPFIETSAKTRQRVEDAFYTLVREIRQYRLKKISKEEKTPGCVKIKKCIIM
Ba/F3 (KRAS-G12C-Q99L) cells, sequence (P01116 whole entry G12C/Q99L): as the sequence (P01116 whole entry G12C/H95Q) above, with Q95H, Q99L counted along it
Ba/F3 (KRAS-G12C-Y96C) cells, sequence (P01116 whole entry G12C/Y96C): as the sequence (P01116 whole entry G12C/H95Q) above, with Q95H, Y96C counted along it
Ba/F3 (KRAS-G12C-R68S) cells, sequence (P01116 whole entry G12C/R68S): as the sequence (P01116 whole entry G12C/H95Q) above, with R68S, Q95H counted along it

In data set [1], `C#Cc1c(F)ccc2cc(O)cc(-c3ccc4c(N5CCN(C(=O)C(=C)F)[C@@H](CC#N)C5)nc(OC[C@@]56CCCN5C[C@H](F)C6)nc4c3F)c12` [Compound 4] returned a half-life of 25.5 min. Also, the microsomal CLint in data set [1] worked out at 54.3 µL/min/mg. For the same compound, the intrinsic metabolic clearance (CLint scaled) in data set [1] amounted to 48.9 mL/min/kg. Moreover, the GI50 in data set [2] amounted to 5.2 nM; in data set [4], 50.6 nM; in data set [6] it was 9.06 nM; in data set [7] it was 39.4 nM. The half-maximal inhibitory concentration (IC50) in data set [3] came out at 1.15 nM; in data set [5], 0.44 nM.
The compound `C#Cc1cccc2cc(O)cc(-c3c(F)cc4c(N5CCN(C(=O)C(=C)F)[C@@H](CC#N)C5)nc(OCC56CCCN5CCC6)nc4c3F)c12` [Compound 7A, 2-((2S)-4-(7-(8-ethynyl-3-hydroxynaphth-1-yl)-6,8-difluoro-2-((tetrahydro-1H-pyrrolizin-7a(5H)-yl)methoxy)quinazolin-4-yl)-1-(2-fluoroacryloyl)piperazin-2-yl)acetonitrile] returned a half-life in data set [1] of 38.4 min. For the same compound, in data set [1], the microsomal CLint stood at 36.1 µL/min/mg. Besides, the CLint scaled in data set [1] came out at 32.5 mL/min/kg. Moreover, the GI50 in data set [2] was found to be 5.28 nM; in data set [4] it was 34.6 nM; in data set [6], 9.03 nM; in data set [7], 16.8 nM. Moreover, the IC50 in data set [3] is 0.6 nM; in data set [5], 0.62 nM.
The compound `C#Cc1cccc2cc(O)cc(-c3c(F)cc4c(N5CCN(C(=O)C(=C)F)[C@@H](CC#N)C5)nc(OC[C@@]56CCCN5C[C@H](F)C6)nc4c3F)c12` [Compound 8A, 2-((2S)-4-(7-(8-ethynyl-3-hydroxynaphth-1-yl)-6,8-difluoro-2-(((2R,7aS)-2-fluorotetrahydro-1H-pyrrolizin-7a(5H)-yl)methoxy)quinazolin-4-yl)-1-(2-fluoroacryloyl)piperazin-2-yl)acetonitrile] showed a half-life in data set [1] of 26.7 min. For the same compound, the microsomal CLint in data set [1] stood at 53 µL/min/mg. Moreover, the intrinsic metabolic clearance (CLint scaled) in data set [1] came out at 49.7 mL/min/kg. Further, the GI50 in data set [2] amounted to 3.44 nM; in data set [4], 33.3 nM; in data set [6], 11.6 nM; in data set [7], 17.8 nM. For the same compound, the figures for the IC50 in data set [3] and in data set [5] were 0.58 nM and 0.24 nM, respectively.
`C#Cc1cccc2cccc(-c3ccc4c(N5CCN(C(=O)C(=C)F)[C@@H](CC#N)C5)nc(OCC56CCCN5CCC6)nc4c3F)c12` [Compound 11, (S)-2-(4-(7-(8-ethynylnaphth-1-yl)-8-fluoro-2-((tetrahydro-1H-pyrrolizin-7a(5H)-yl)methoxy)quinazolin-4-yl)-1-(2-fluoroacryloyl)piperazin-2-yl)acetonitrile] returned a half-life in data set [1] of 38.8 min. Moreover, in data set [1], the microsomal CLint was 35.7 µL/min/mg. In addition, in data set [1], the intrinsic metabolic clearance (CLint scaled) worked out at 32.1 mL/min/kg. The GI50 in data set [2] turned out to be 25.7 nM; in data set [4], 69.4 nM; in data set [6], 56.7 nM; in data set [7], 62.6 nM. In addition, the IC50 came to 0.86 nM in data set [3] and 0.79 nM in data set [5].
In data set [1], `C#Cc1c(F)ccc2cc(O)cc(-c3ccc4c(N5CCN(C(=O)C(=C)F)[C@@H](CC#N)C5)nc(OCC56CCCN5CCC6)nc4c3F)c12` [Compound 12, (S)-2-(4-(7-(8-ethynyl-7-fluoro-3-hydroxynaphth-1-yl)-8-fluoro-2-((tetrahydro-1H-pyrrolizin-7a(5H)-yl)methoxy)quinazolin-4-yl)-1-(2-fluoroacryloyl)piperazin-2-yl)acetonitrile] returned a half-life of 30.9 min. Besides, the microsomal CLint in data set [1] worked out at 56.2 µL/min/mg. This compound showed a CLint scaled in data set [1] of 49.6 mL/min/kg. In addition, the GI50 in data set [2] was 26.2 nM; in data set [4] it was 51.4 nM; in data set [6], 24.4 nM; in data set [7] it was 41.6 nM. Besides, the IC50 in data set [3] turned out to be 1.02 nM; in data set [5], 0.66 nM.
Consider `C#Cc1cccc2cccc(-c3c(F)cc4c(N5CCN(C(=O)C(=C)F)[C@@H](CC#N)C5)nc(OCC56CCCN5CCC6)nc4c3F)c12` [Compound 18B, 2-((2S)-4-(7-(8-ethynylnaphth-1-yl)-6,8-difluoro-2-((tetrahydro-1H-pyrrolizin-7a(5H)-yl)methoxy)quinazolin-4-yl)-1-(2-fluoroacryloyl)piperazin-2-yl)acetonitrile], for which, in data set [1], the half-life was 44.2 min. Also, in data set [1], the microsomal CLint is 35.6 µL/min/mg. The compound further came in with an intrinsic clearance (CLint scaled) in data set [1] of 33 mL/min/kg. For the same compound, the GI50 in data set [2] is 4.89 nM; in data set [4] it was 29.9 nM; in data set [6], 8.92 nM; in data set [7] it was 12.8 nM. The 50% inhibitory concentration (IC50) in data set [3] was determined as 0.68 nM; in data set [5], 0.5 nM.
As for `C=C(F)C(=O)N1CCN(c2nc(OCC34CCCN3CCC4)nc3c(F)c(-c4cc(O)cc5cccc(Cl)c45)c(F)cc23)C[C@@H]1CC#N` [Compound 22A, 2-((2S)-4-(7-(8-chloro-3-hydroxynaphth-1-yl)-6,8-difluoro-2-((tetrahydro-1H-pyrrolizin-7a(5H)-yl)methoxy)quinazolin-4-yl)-1-(2-fluoroacryloyl)piperazin-2-yl)acetonitrile], in data set [1], the half-life came out at 39.2 min. Moreover, the microsomal CLint in data set [1] amounted to 35.6 µL/min/mg. This compound came in with an intrinsic clearance (CLint scaled) in data set [1] of 33 mL/min/kg. Moreover, the GI50 in data set [2] was found to be 7.23 nM; in data set [4] it was 34.1 nM; in data set [6] it was 11.1 nM; in data set [7], 23.9 nM. Besides, the concentration for half-maximal inhibition (IC50) in data set [3] came to 0.76 nM; in data set [5], 0.47 nM.
